Measurements taken from ChEMBL document CHEMBL1150795, “Sultam thiourea inhibition of West Nile virus” (Antimicrob Agents Chemother, 2007).
pEC50: −log10 of the molar value. Calls of active or inactive are those of the source. The calls are words filed in the database; no cut-off is given here.

Tests used:
[1] = Cytotoxicity against african green monkey Vero cells after 48 hrs by MTS method; assay type: cell-based; conditions: chlorocebus sabaeus
[2] = tested on: West Nile virus; test: Antiviral activity against West Nile virus NY 1999 infected in african green monkey Vero cells assessed as reduction of virus yield relative to control; assay type: functional, organism-based
[3] = tested on: Japanese encephalitis virus; test: Antiviral activity against Japanese encephalitis virus SA14-2-8 infected in african green monkey Vero cells assessed as reduction of virus yield relative to control; assay type: functional, organism-based
[4] = tested on: West Nile virus; test: Antiviral activity against West Nile virus NY 1999 infected in african green monkey Vero cells assessed as reduction of viral E protein level by immunofluorescence method; assay type: functional, organism-based
[5] = tested on: West Nile virus; test: Antiviral activity against West Nile virus NY 1999 infected in african green monkey Vero cells assessed as reduction of virus yield administered 2 hrs postinfection; assay type: functional, organism-based
[6] = tested on: West Nile virus; test: Antiviral activity against West Nile virus NY 1999 infected in african green monkey Vero cells assessed as reduction of viral RNA level by RT-PCR relative to control; assay type: functional
[7] = tested on: West Nile virus; test: Antiviral activity against West Nile virus NY 1999 infected in african green monkey Vero cells assessed as reduction of viral E protein level by immunoblot method; assay type: functional, organism-based
[8] = Selectivity index, ratio of CC50 for african green monkey Vero cells to EC50 for West Nile virus NY 1999; assay type: toxicity, cell-based; conditions: read-out: Ratio CC50/EC50
[9] = tested on: Prospect Hill virus; test: Antiviral activity against Prospect Hill Hantavirus; assay type: functional, organism-based; conditions: Orthohantavirus prospectense
[10] = tested on: Human immunodeficiency virus 1; test: Antiviral activity against HIV1; assay type: functional, organism-based
[11] = tested on: Human immunodeficiency virus 1; test: Antiviral activity against HIV1 in 293 cells assessed as reduction of viral replicon after 48 hrs by luciferase based reporter gene assay relative to control; assay type: functional, organism-based; conditions: HEK293
[12] = tested on: West Nile virus; test: Antiviral activity against West Nile virus NY 1999 infected in african green monkey Vero cells assessed as reduction of virus yield after 5 days post infection at 2.3 uM relative to control; assay type: functional
[13] = Cytotoxicity against african green monkey Vero cells by trypan blue exclusion assay; assay type: cell-based; conditions: chlorocebus sabaeus
[14] = tested on: West Nile virus; test: Antiviral activity against West Nile virus in BHK cells assessed as reduction of viral replicon after 48 hrs by luciferase based reporter gene assay relative to control; assay type: functional
[15] = tested on: West Nile virus; test: Antiviral activity against West Nile virus NY 1999 infected in african green monkey Vero cells assessed as reduction of virus yield after 5 days post infection at 23 uM relative to control; assay type: functional
[16] = tested on: Vero; test: Cytotoxicity against african green monkey Vero cells at 23 uM after 48 hrs by MTS method; assay type: cell-based; conditions: chlorocebus sabaeus
[17] = tested on: Human adenovirus 5; test: Antiviral activity against human adenovirus 5; assay type: functional, organism-based

Compound: CC(C)N(C(=S)/N=C1\SC(C)S(=O)(=O)N1C)C(C)C (stereo unspecified)
- CC50 at 48 h [1]: 90 µM
- pEC50 [2]: 4.52
- pEC50 [3]: 4.52

Compound: O=S1(=O)CS/C(=N\C(=S)N(c2ccccc2)c2ccccc2)N1c1ccccc1
- Activity [4]: Active
- Activity [5]: Active
- Activity [6]: >100
- Activity [7]: Active
- selectivity ratio [8]: > 100
- Activity [9]: Active
- Activity [10]: Active
- Activity [11]: inactive
- fold change (FC) [12]: 100
- CC50 [13]: > 70 µM
- fold change (FC) [14]: >20
- CC50 at 48 h [1]: > 70 µM
- fold change (FC) [15]: 100
- pEC50 [2]: 6.15
- Activity [16]: Non-toxic
- pEC50 [3]: 5.15
- Activity [17]: Active

Compound: O=S1(=O)CS/C(=N\C(=S)N(Cc2ccccc2)Cc2ccccc2)N1c1ccccc1
- CC50 at 48 h [1]: 65 µM
- pEC50 [2]: 4.66
- pEC50 [3]: 4.19

Compound: CC(C)N(C(=S)/N=C1\SCS(=O)(=O)N1c1ccccc1)C(C)C
- CC50 at 48 h [1]: > 80 µM
- pEC50 [2]: 4.10
- pEC50 [3]: 5.10
